The test system of test [1] is circulating levels of luteinizing hormone (LH). Description: Castrated male rat model, circulating luteinizing hormone (LH). The conditions noted are these: castrated male SD rats, single oral dose less than or equal to 30 mg/kg, p<0.05. The test is classed as in vivo. The protocol: Castrated male rat model to assess the effect of compound of invention on circulating levels of luteinizing hormone (LH)
The effect of compounds of the invention to inhibit luteinizing hormone (LH) secretion is determined by the following biological studies.
In humans and rodents, castration is well-precedented to permit heightened, persistent GnRH signaling and consequent elevation of circulating LH. Thus, a castrated rat model is used to provide a broad index for measurement of LH inhibition as a marker of test compound inhibition of the GnRH signaling pathway.
Castrated adult male Sprague-Dawley (SD) rats (150-175 g) were purchased from Janvier (St Berthevin, France). All animals were housed 2 per cage in a temperature-controlled room (22±2° C.) and 50±5% relative humidity with a 12 hour/12 hour light/dark cycles (lights off at 6h00 pm). The animals were allowed 3 weeks of postoperative recovery prior to study. Animals were handled on a daily basis. Standard diet and tap water were provided ad libitum. Animal cage litters were changed once a week. On the study day, animals were acclimated to the procedure room for a period of one hour prior to the initiation of the experiment.
Compounds of the invention were formulated in 0.5% methyl cellulose.
After basal sampling (T0) a single dose of compounds of the invention or vehicle was administrated orally to rats. Blood samples were then collected at several time points post dosing (45, 90, 150, 300 and 420 minutes). Blood samples were obtained via tail vein bleed, drawn into EDTA-containing tubes and centrifuged immediately. Plasma samples were collected and stored in a −80° C. freezer until assayed. Serum LH levels were determined using radioimmunoassay kit from RIAZEN—Rat LH, Zentech (Liège, Belgium). Baseline was defined as the initial basal blood sample.

Test [2] relates to plasma estradiol levels. The test can be described thus: Estradiol circulating level in female rats. The test is classed as in vivo, rat. The conditions noted are these: adult female rats, 10 mg/kg b.i.d. oral, 10 days, two consecutive estrous cycles. On the procedure: The aim of this study was to evaluate the effect of compounds of the invention on plasma estradiol levels following oral administration at 10 mg/kg (b.i.d.) for a period of 10 days in female rats.
Two groups of adult, female rats (Sprague-Dawley, ˜320 g) were treated in-phase with their individual estrous cycles. Thus, treatment was started in the proestrus phase (coincident with peak estradiol levels, as shown on Day 1 in FIG. 3) and rats were dosed twice daily (˜9h30 and 17h30) by oral administration either with a compound of the invention at 10 mg/kg or with the vehicle for the control group. Compounds of the invention were prepared in a dose formulation of pyrogen-free water with 0.5% methylcellulose. Estradiol levels were determined for all groups by ELISA performed on plasma samples derived from blood collections taken at 30 minutes before the daily, 9h30 test article administration on all days presented in FIG. 3.

Test [3] has as its system body temperature. Description: Thermoregulation in ovariectomized (OVX) ewes. The settings on record: 1 mg/kg intravenous bolus. The test is classed as in vivo, ewe. From the text: After 4 months recovery, animals were acclimatised to housing in single pens for a period of 7 days with ad libitum access to water and […] lucerne hay. One day prior to experimentation, the animals received a jugular vein cannula ([…], Tuta Laboratories, Lane Cove, Australia). The cannulae were kept patent with heparinised saline. On the day of the experiment, compound no 5 of the present invention was formulated in physiological saline with 9% 2-hydroxypropyl-β-cyclodextrin at a concentration of 2 mg/mL. Compound no 5 (1 mg/kg, N=5) or vehicle (N=5) was administered at 11h00 by intravenous bolus injection at a dose volume of 0.5 mL/kg through the jugular cannula and the injected material was flushed into the animal with 5 mL of heparinised saline. Animals were fed at 12h00. Rectal temperatures were monitored with a probe at hourly intervals throughout the experiment, starting at 7h40 and concluding at 15h40. […] However, this pyrogenic response to feeding in ovarectomized ewes was not observed in any animals treated with compound no 5. […] Graphical data presented as mean±SEM for vehicle-treated versus compound no 5-treated ewes (N=5/group). Statistical analyses performed by 2-way ANOVA followed by Sidak's Multiple Comparisons Test between treatment groups at the indicated time interval, *p<0.05.

Test [4] has as its system plasma testosterone. The test can be described thus: Plasma testosterone in gonad intact male rats. The class given is in vivo, rat. The conditions noted are these: gonad intact male SD rats, 3 mg/kg single oral administration, vs vehicle, over the test period. On the procedure:
The study was designed to evaluate the effect of compounds of the invention on testosterone circulating levels following oral administration at 3 mg/kg on SD gonad intact male rats.
Two groups of non-fasted rats (male, Sprague-Dawley, 200 to 225 g; n=4 rats/group) with jugular vein cannulation, were dosed via a single oral administration of compounds of the invention at 3 mg/kg. The control group was dosed with the vehicle. Compounds of the invention were prepared in a dose formulation of pyrogen-free water with 0.5% methylcellulose. Blood samples were collected via the catheter implanted in the jugular vein at pre-determined intervals using EDTA-3K as anti-coagulant. Samples were chilled and rapidly processed by centrifugation to obtain corresponding plasma samples. Testosterone hormone levels were determined by RIA performed on plasma samples collected for all the groups at 5 minutes before administration (basal time), and at 45, 90, 150, 300, 480 minutes and 24 hours after dosing.

As for `Cc1nsc(-c2nnc3n2CCN(C(=O)c2ccc(Cl)c(Cl)c2)[C@@H]3C)n1` [Compound 1, (R)-(3,4-dichlorophenyl)(8-methyl-3-(3-methyl-1,2,4-thiadiazol-5-yl)-5,6-dihydro-[1,2,4]triazolo[4,3-a]pyrazin-7(8H)-yl)methanone], the “Effect on circulating LH levels” value in test [1] is listed as “significantly suppressed circulating LH levels”. `CCc1nsc(-c2nnc3n2CCN(C(=O)c2ccc(F)cc2)[C@@H]3C)n1` [Compound 2, (R)-(3-(3-ethyl-1,2,4-thiadiazol-5-yl)-8-methyl-5,6-dihydro-[1,2,4]triazolo[4,3-a]pyrazin-7(8H)-yl)(4-fluorophenyl)methanone]: the “Effect on circulating LH levels” value in test [1] is “significantly suppressed circulating LH levels”. Same read-out and setting: with `Cc1nsc(-c2nnc3n2CCN(C(=O)c2ccc(F)c(F)c2F)[C@@H]3C)n1` [Compound 8, (R)-(8-methyl-3-(3-methyl-1,2,4-thiadiazol-5-yl)-5,6-dihydro-[1,2,4]triazolo[4,3-a]pyrazin-7(8H)-yl)(2,3,4-trifluorophenyl)methanone] the entry was “significantly suppressed circulating LH levels”. Consider `CCc1noc(-c2nnc3n2CCN(C(=O)c2ccc(-c4cccs4)cc2)[C@@H]3C)n1` [Compound 30, (R)-(3-(3-ethyl-1,2,4-oxadiazol-5-yl)-8-methyl-5,6-dihydro-[1,2,4]triazolo[4,3-a]pyrazin-7(8H)-yl)(4-(thiophen-2-yl)phenyl)methanone], for which the “Effect on circulating LH levels” value in test [1] is “significantly suppressed circulating LH levels”. On the same count and under the same terms, then `Cc1nsc(-c2nnc3n2CCN(C(=O)c2ccc(F)c(F)c2)[C@@H]3C)n1` [Compound 9, (R)-(3,4-difluorophenyl)(8-methyl-3-(3-methyl-1,2,4-thiadiazol-5-yl)-5,6-dihydro-[1,2,4]triazolo[4,3-a]pyrazin-7(8H)-yl)methanone], with “significantly suppressed circulating LH levels”; and `CCc1noc(-c2nnc3n2CCN(C(=O)c2ccc(F)cc2)[C@@H]3C)n1` [Compound 13, (R)-(3-(3-ethyl-1,2,4-oxadiazol-5-yl)-8-methyl-5,6-dihydro-[1,2,4]triazolo[4,3-a]pyrazin-7(8H)-yl)(4-fluorophenyl)methanone], with “significantly suppressed circulating LH levels”.

Turning to `Cc1nsc(-c2nnc3n2CCN(C(=O)c2ccccc2)[C@@H]3C)n1` [Compound 20, (R)-(8-methyl-3-(3-methyl-1,2,4-thiadiazol-5-yl)-5,6-dihydro-[1,2,4]triazolo[4,3-a]pyrazin-7(8H)-yl)(phenyl)methanone], in test [1], the “Effect on circulating LH levels” value is on record as “significantly suppressed circulating LH levels”. As to `Cc1nsc(-c2nnc3n2CCN(C(=O)c2ccc(F)cc2)[C@@H]3C)n1` [Compound 5, (R)-(4-fluorophenyl)(8-methyl-3-(3-methyl-1,2,4-thiadiazol-5-yl)-5,6-dihydro-[1,2,4]triazolo[4,3-a]pyrazin-7(8H)-yl)methanone], in test [2], the “Effect on estradiol levels” value is “significantly decreased estradiol levels”. Further, in test [3], the “Pyrogenic response to feeding” value is “not observed”. In addition, the “Effect on plasma testosterone level” value in test [4] was “significantly suppressed plasma testosterone level”. In addition, the “Effect on circulating LH levels” value in test [1] is listed as “significantly suppressed circulating LH levels”. `Cc1nsc(-c2nnc3n2CCN(C(=O)c2ccc(Cl)c(F)c2)[C@@H]3C)n1` [Compound 4, (R)-(4-chloro-3-fluorophenyl)(8-methyl-3-(3-methyl-1,2,4-thiadiazol-5-yl)-5,6-dihydro-[1,2,4]triazolo[4,3-a]pyrazin-7(8H)-yl)methanone]: the “Effect on circulating LH levels” value in test [1] is “significantly suppressed circulating LH levels”.

These data come from patent publication US10030025B2, “Substituted [1,2,4]triazolo[4,3-a]pyrazines as selective NK-3 receptor antagonists” (EUROSCREEN SA, priority 2013, dated 2018).
